# Results from US9957253B2, “Triaminopyrimidine compounds useful for preventing or treating malaria” (MMV MEDICINES FOR MALARIA VENTURE, priority 2014, dated 2018).
# Structures can show the parent of a compound that is named as a salt. Where two headings read alike, the source gives them in different places.
# Legend:
# [1] = test system: chloroquine-resistant K1 strain of P. falciparum; assay: In vitro antiplasmodial activity (SYBR I), K1 strain; format: cell-based, Plasmodium falciparum
# Method: (§1) Measuring In Vitro Antiplasmodial Activity
# (§2) The test samples were tested in duplicate on two separate occasions against chloroquine sensitive NF54 (MRA-1000, MR4, ATCC, Manassas, Va.) and chloroquine-resistant K1 strains of P. falciparum. A modified method of Trager and Jensen was employed to maintain continuous in vitro cultures of asexual blood stages of P. falciparum (Trageret al., 1976, Science, 193, 673-675). Quantitative assessment of antiplasmodial activity in vitro was determined using the SYBR I method as described earlier (Johnson et al., 2007, Antimicrob. Agents Chemother., 51, 1926-1933).
# (§3) The percent inhibition with respect to the drug-free control was plotted against the logarithm of drug concentration. The growth inhibition curves were fitted by nonlinear regression using the sigmoidal dose-response (variable slope) formula to yield the concentration-response curves. […] Chloroquine diphosphate (CQ) (Sigma), artesunate (Sigma), and pyrimethamine were used as reference drugs in all experiments.
# [2] = test system: chloroquine sensitive NF54 strain of P. falciparum; assay: In vitro antiplasmodial activity (SYBR I), NF54 strain; format: cell-based, Plasmodium falciparum
# Method: as §1, §2, §3
# P. vivax field isolates = assay: Ex vivo drug susceptibility (schizont maturation) of P. vivax field isolates; format: cell-based; conditions: Plasmodium vivax, read-out: P. vivax IC50
# Method: (§4) Further, compounds of the invention (Examples 2 and 13) were also tested against field isolates of falciparum and vivax malaria, along with three control antimalarials as described in the protocol below.
# (§5) Ex Vivo Activity of Examples 2 and 13 Against Drug Resistant P. falciparum and P. Vivax Field Isolates
# (§6) Standard antimalarial drugs chloroquine (CQ), amodiaquine (AQ), piperaquine (PIP), mefloquine (MFQ), and artesunate (AS) and compounds of the invention were prepared as 1 mg/mL stock solutions in H2O or dimethyl sulfoxide (DMSO) according to the manufacturers' instructions. Drug plates were pre-dosed by diluting the compounds in 50% Methanol followed by lyophilisation and stored at 4° C.
# (§7) Plasmodium isolates were collected from patients attending malaria clinics in Timika (Papua, Indonesia), a region endemic for multi-drug-resistant strains of P. vivax and P. falciparum. Patients with symptomatic malaria presenting to an outpatient facility were recruited into the study if singly infected with P. falciparum or P. vivax, with a parasitaemia of between 2,000 μl-1 and 80,000 μl-1, and the majority (>80%) of parasites at ring stage of development. Venous blood (5 mL) was collected by venipuncture and after removal of host white blood cells by using cellulose (Sigma-Aldrich, Australia) filtration, packed infected red blood cells (iRBCs) were used for the ex vivo drug susceptibility assay.
# (§8) Drug susceptibility of P. vivax and P. falciparum isolates was measured using a protocol modified from the WHO microtest as described previously (Marfurt et al., 2011, Antimicrob Agents Chemother., 55(9):4461). Two hundred μL of a 2% haematocrit Blood Media Mixture (BMM), consisting of RPMI 1640 medium plus 10% AB+ human serum (P. falciparum) or McCoy's 5 A medium plus 20% AB+ human serum (P. vivax), was added to each well of pre-dosed drug plates containing 11 serial concentrations (2-fold dilutions) of the antimalarials (maximum concentration shown in brackets) CQ (2,992 nM), AQ (158 nM), PIP (1,029 nM), MFQ (338 nM), AS (49 nM), and a compound of the invention (2,146 nM). A candle jar was used to mature the parasites at 37.0° C. for 35-56 hours.
# (§9) Thick blood films made from each well were stained with 5% Giemsa solution for 30 minutes and examined microscopically. The number of schizonts per 200 asexual stage parasites was determined for each drug concentration and normalised to the control well. The dose-response data were analysed using nonlinear regression analysis (WinNonLn 4.1, Pharsight Corporation) and the IC50 value derived using an inhibitory sigmoid Emax model. […] Drug plate quality was assured by running schizont maturation assays (two independent experiments) with the chloroquine-resistant strain K1 and the chloroquine-sensitive strain FC27.
# (§10) For microscopy slide reading QC, two randomly selected drugs per isolate were read by a second microscopist. […] If necessary, discrepant results were resolved by a third reading by an expert microscopist.
# [3] = test system: P. falciparum field isolates; assay: Ex vivo drug susceptibility (schizont maturation) of P. falciparum field isolates; format: cell-based; conditions: Plasmodium falciparum, read-out: P. falciparum IC50
# Method: as §4, §5, §6, §7, §8, §9, §10
# [4] = Identification of metabolites of Example 13, human liver microsomes or hepatocytes; format: in vitro ADME; conditions: metabolite of Example 13
# Method: (§11) Identification of In Vivo Metabolites
# (§12) Metabolites of Example 13 were identified both in vitro and in vivo using the following models: • In vitro: The compound of Example 13 was incubated with human (HLM) or rat (RLM) liver microsomes (1 mg/ml protein concentration in 100 mM phosphate buffer, pH 7.4) at a final concentration of 10 μM in the presence of 2 mM NADPH. The reactive intermediates were trapped by including 2 mM glutathione (GSH) or N-acetyl cysteine (NAC) in the reaction mix. • In vivo in bile duct cannulated rats: Example 13 was administered intravenously (IV) as a bolus through the jugular vein at a dose of 2 mg/kg or 4 mg/kg of body weight for control (n=3) or BDC rats (n=2), respectively. Blood samples were collected at 0.083, 0.25, 0.5, 1, 2, 4, 6, 8 and 24 h through the carotid artery, bile samples were collected at 0-2 h, 2-4 h, 4-6 h, 6-8 h and 8-24 h intervals and urine samples were collected at 0-8 h and 8-24 h intervals. The bile and urine samples were analyzed for the presence of parent and metabolites and blood samples were analyzed for the presence of parent.
# [5] = Identification of metabolites of Example 13, rat liver microsomes or hepatocytes; format: in vitro ADME; conditions: metabolite of Example 13
# Method: as §11, §12
# [6] = Identification of metabolites of Example 13, mouse liver microsomes or hepatocytes; format: in vitro ADME; conditions: metabolite of Example 13
# Method: as §11, §12
# [7] = Plasmodium falciparum, K1, read-out: Pf IC50—K1
# [8] = Plasmodium falciparum, NF54, read-out: Pf IC50—NF54
# [9] = Plasmodium falciparum, K1 strain, chloroquine-resistant, read-out: Pf IC50—K1
# [10] = Plasmodium falciparum, NF54 strain, chloroquine sensitive, read-out: Pf IC50—NF54
compound,measurement,setting,value
"Cc1nc(Nc2ncc(N3CCN[C@H](C)C3)c(Nc3cn(C)nn3)n2)cc(C2CC2)c1F [Example 4, (R)—N2-(4-cyclopropyl-5-fluoro-6-methylpyridin-2-yl)-N4-(1-methyl-1H-1,2,3-triazol-4-yl)-5-(3-methylpiperazin-1-yl)pyrimidine-2,4-diamine dihydrochloride]",IC50,[1]; [7],51 nM
same,IC50,[2]; [8],33 nM
"Clc1ccc2c(N3CCN(CCCN4CCN(c5ccnc6cc(Cl)ccc56)CC4)CC3)ccnc2c1 [Piperaquine, piperaquine]",IC50,P. vivax field isolates,5.9 nM
same,IC50,[3],16.9 nM
"Cc1nc(Nc2ncc(N3CCN[C@H](C)C3)c(Nc3cn(C)nn3)n2)cc(C2CC2)c1Cl [Example 11, (R)—N2-(5-chloro-4-cyclopropyl-6-methylpyridin-2-yl)-N4-(1-methyl-1H-1,2,3-triazol-4-yl)-5-(3-methylpiperazin-1-yl)pyrimidine-2,4-diamine dihydrochloride]",IC50,[1]; [7],50 nM
same,IC50,[2]; [8],30 nM
"CCc1cc(Nc2ncc(N3CCNC(C)C3)c(Nc3cc(C)n(C)n3)n2)nc(C)c1F (stereo in doubt) [Example 8, (R)—N4-(1,5-dimethyl-1H-pyrazol-3-yl)-N2-(4-ethyl-5-fluoro-6-methylpyridin-2-yl)-5-(3-methylpiperazin-1-yl)pyrimidine-2,4-diamine dihydrochloride]",IC50,[1]; [7],44 nM
same,IC50,[2]; [8],35 nM
"CCN(CC)CCCC(C)Nc1ccnc2cc(Cl)ccc12 (stereo not drawn) [Chloroquine, chloroquine, reference compound]",IC50,[1]; [7],> 150 nM
same,IC50,P. vivax field isolates,40.2 nM
same,IC50,[2]; [8],11 nM
same,IC50,[3],60.8 nM
"Cc1nc(Nc2ncc(N3CCN[C@H](C)C3)c(Nc3cc(C)n(C)n3)n2)cc(C2CCC2)c1F [Example 9, (R)—N2-(4-cyclobutyl-5-fluoro-6-methylpyridin-2-yl)-N4-(1,5-dimethyl-1H-pyrazol-3-yl)-5-(3-methylpiperazin-1-yl)pyrimidine-2,4-diamine dihydrochloride]",IC50,[1]; [7],48 nM
same,IC50,[2]; [8],25 nM
"Cc1nc(Nc2ncc(N3CCN[C@H](C)C3)c(Nc3cc(C)n(C)n3)n2)cc(C2CC2)c1C#N [Example 6, (R)-4-cyclopropyl-6-((4-((1,5-dimethyl-1H-pyrazol-3-yl)amino)-5-(3-methylpiperazin-1-yl)pyrimidin-2-yl)amino)-2-methylnicotinonitrile dihydrochloride]",IC50,[1]; [7],45 nM
same,IC50,[2]; [8],31 nM
"CCc1nc(N)nc(N)c1-c1ccc(Cl)cc1 [Pyrimethamine, pyrimethamine, reference compound]",IC50,[1]; [9],7900 nM
same,IC50,[2]; [10],64 nM
"C[C@H]1[C@H](OC(=O)CCC(=O)O)O[C@@H]2O[C@@]3(C)CC[C@H]4[C@H](C)CC[C@@H]1[C@@]24OO3 [Artesunate, artesunate]",IC50,P. vivax field isolates,4.79 nM
same,IC50,[3],15.1 nM
"CCn1nc(Nc2nc(Nc3cc(C4CC4)c(F)c(C)n3)ncc2N2CCN[C@H](C)C2)cc1C [Example 3, (R)—N2-(4-cyclopropyl-5-fluoro-6-methylpyridin-2-yl)-N4-(1-ethyl-5-methyl-1H-pyrazol-3-yl)-5-(3-methylpiperazin-1-yl)pyrimidine-2,4-diamine dihydrochloride]",IC50,[1]; [7],14 nM
same,IC50,[2]; [8],17 nM
"Cc1nc(Nc2ncc(N3CCN[C@H](C)C3)c(Nc3cc(C)n(C)n3)n2)cc(C2CC2)c1Cl [Example 5, (R)—N2-(5-chloro-4-cyclopropyl-6-methylpyridin-2-yl)-N4-(1,5-dimethyl-1H-pyrazol-3-yl)-5-(3-methylpiperazin-1-yl)pyrimidine-2,4-diamine dihydrochloride]",IC50,[1]; [7],48 nM
same,IC50,[2]; [8],23 nM
"Cc1nc(Nc2ncc(N3CCN(C)CC3)c(Nc3cn(C)nn3)n2)cc(C2CC2)c1F [Example 1, N2-(4-cyclopropyl-5-fluoro-6-methylpyridin-2-yl)-N4-(1-methyl-1H-1,2,3-triazol-4-yl)-5-(4-methylpiperazin-1-yl)pyrimidine-2,4-diamine]",IC50,[1]; [9],24 nM
same,IC50,[2]; [10],15 nM
"Cc1nc(Nc2ncc(N3CCN(C)[C@H](C)C3)c(Nc3cn(C)nn3)n2)cc(C2CC2)c1F [Example 14, (R)—N2-(4-cyclopropyl-5-fluoro-6-methylpyridin-2-yl)-5-(3,4-dimethylpiperazin-1-yl)-N4-(1-methyl-1H-1,2,3-triazol-4-yl)pyrimidine-2,4-diamine]",IC50,[1]; [9],69 nM
same,IC50,[2]; [10],33 nM
"Cc1nc(Nc2ncc(N3CCN[C@H](C)C3)c(Nc3cc(C)n(C)n3)n2)cc(C2CC2)c1F [Example 2, (R)—N2-(4-cyclopropyl-5-fluoro-6-methylpyridin-2-yl)-N4-(1,5-dimethyl-1H-pyrazol-3-yl)-5-(3-methylpiperazin-1-yl)pyrimidine-2,4-diamine dihydrochloride]",IC50,[1]; [7],19 nM
same,IC50,P. vivax field isolates,81 nM
same,IC50,[2]; [8],14 nM
same,Presence of proposed metabolite (N-demethylation) in liver microsomes or hepatocytes,[4],✓
same,IC50,[3],63.6 nM
same,Presence of proposed metabolite (N-demethylation) in liver microsomes or hepatocytes,[5],✓
same,Presence of proposed metabolite (N-demethylation) in liver microsomes or hepatocytes,[6],✓
"(R)—N2-(5-Fluoro-4-cyclopropyl-6-methylpyridin-2-yl)-N4-(2-methyl-2H-1,2,3-triazol-4-yl)-5-(3-methylpiperazin-1-yl)pyrimidine-2,4-diamine dihydochloride [Example 12]",IC50,"[1]; K1 strain, chloroquine-resistant, read-out: Pf IC50—K1",82 nM
same,IC50,"[2]; NF54 strain, chloroquine sensitive, read-out: Pf IC50—NF54",39 nM
"Cc1nc(Nc2ncc(N3CCN(C)[C@H](C)C3)c(Nc3cnn(C)n3)n2)cc(C2CC2)c1F [Example 15, (R)—N2-(4-cyclopropyl-5-fluoro-6-methylpyridin-2-yl)-5-(3,4-dimethylpiperazin-1-yl)-N4-(2-methyl-2H-1,2,3-triazol-4-yl)pyrimidine-2,4-diamine]",IC50,[1]; [9],37 nM
same,IC50,[2]; [10],17 nM
